Assay results taken from patent publication US8835389B2, “Use of calcitonin for the treatment of RA” (priority 2005, dated 2014).
No end group written: not given here.

Assays:
[1] = Water solubility of delivery agents
[2] = test system: Collagen Induced Arthritis model (CIA-model) in lewis rats; experiment: Collagen Induced Arthritis model (CIA-model), serum CTX-II; format: in vivo; details: day 21 after collagen injection, 50 mg/kg 5-CNAC+calcitonin 2 mg/kg twice daily, versus CIA-group
Excerpt: Arthritis induced in rodents by the systemic administration of type II collagen (CII) is an experimental model with many resemblances to RA, and is widely used for studying the disease processes (reviewed in Wooley P H, Chapedelaine J M. Immunogenetics of collagen-induced arthritis. Crit Rev Immunol 1987; 8: 1-22; and Trentham D E. Collagen arthritis as a relevant model for rheumatoid arthritis. Arth Rheum 1982; 25: 9116).
Upon immunization with purified CII in complete Freund's adjuvant, genetically susceptible strains of rodents develop arthritis, which is characterized by cellular and humoral immune responses to CII. […]
Animals are monitored for signs of arthritis one week post immunization on a daily basis and a clinical scoring system is adopted wherein each limb is given a clinical score on the basis of visual signs of oedema and/or erythema as follows: 0=normal, 1=slight swelling and/or erythema at the base of the paw, 2=frank oedema and erythema involving the entire paw, 2·5=pronounced oedema and erythema leading to an incapacitated limb mobility, 3=ankylosis, as previously described in Malfait A M, Butler D M, Presky D H et al., Blockade of IL-12 during the induction of collagen-induced arthritis (CIA) markedly attenuates the severity of the arthritis. […]

[3] = in vivo

Which water solubility [1] does the source give for `O=C(O)CCCCCCCCCNC(=O)c1ccccc1O` [SNAD, N-(10-[2-hydroxybenzoyl]amino)decanoic acid] here?
The water solubility was “very water soluble”.

With “Calcitonin (CGNLSTCMLGTYTQDFNKFHTFPQTAIGVGAP; ends and bridges not checked; cysteine pairing not given here; UniProt P01258 85-116, looked up)” as the compound, how does the “reduction of the increase in serum c-terminal telopeptide of type II collagen (serum CTX-II)” value [2] read?
Its value is 33%.

Which “absorbed by the gastro-intestinal tract” value [3] does the source give for `O=C(O)CCCCCCCNC(=O)c1cc(Cl)ccc1O` [5 CNAC, N-(5-chlorosalicyloyl)-8-aminocaprylic acid] here?
The value was “greater than 90%”.
